# Source: patent publication US11318115B2, “Oral pharmaceutical composition of Tecovirimat and preparation method thereof” (priority 2016, dated 2022)
# Read-outs that look alike come from different tables or passages of the source.
# Columns and labels:
# physchem = type: physicochemical; conditions: aqueous with cosolvent or surfactant or cyclodextrin, thermodynamic from solid
# Experimental: Excess amounts of Tecovirimat (bulk drug powder) was added to an aqueous solution comprising meglumine and cyclodextrin at different ratios relative to each other to form a suspension. The suspension was placed in a constant-temperature incubation shaker, and was shaken at a temperature of 25±1° C., 37±1° C. and 60±1° C. for 72 h. After reaching equilibrium, the suspension was filtered through a 0.45 μm hydrophilic filter membrane to obtain a filtrate. After the filtrate was properly diluted with an acetonitrile-water (50:50, v/v) solution, the absorbance was measured at 224 nm, and the solubility of Tecovirimat was calculated. The corresponding solubility curve was plotted by using the solubility of the drug as the ordinate, and using the concentration of the cyclodextrin and/or meglumine as the abscissa.
# [1] = In vitro dissolution in water (ChP 2015, 0931 Method II, 100 rpm); type: physicochemical; conditions: within 60 min, 1000 ml water, FIG. 2
# Experimental: Experimental method: 1000 ml water was used as dissolution medium, and according to the Dissolution Test (Pharmacopoeia of the People's Republic of China (2015 Edition), General Notices, 0931 Method II), the operation was carried out at a rotation rate of 100 rpm, and a solution (5 ml) was taken at 5, 10, 15, 30, 45, and 60 min, respectively, and was filtrated through a 0.45 μm microporous membrane, to obtain a test solution; and Tecovirimat (bulk drug powder, 5 mg) as a reference was accurately weighed, and placed in a 100 ml volumetric flask, and the medium for dissolution was added to a final volume of 100 ml, thereby obtaining a reference solution. By high performance liquid chromatography, the peak area of the test solution and the reference solution were measured at 224 nm. The dissolution amounts at different time points was calculated by an external standard method, and the cumulative dissolution curves were plotted.
# [2] = cited from earlier work
# [3] = cited from earlier work; remark: listed apart in the source
structure (smiles),measurement,setting,value
"O=C(NN1C(=O)[C@@H]2[C@@H]3C=C[C@@H]([C@H]4C[C@@H]34)[C@@H]2C1=O)c1ccc(C(F)(F)F)cc1 [Tecovirimat, 4-trifluoromethyl-N-(3,3a, 4,4a, 5,5a, 6,6a-octahydro-1,3-dioxo-4,6-ethenocycloprop [f]isoindol-2 (1H)-yl)-benzamide]",solubility,"physchem; 25 °C, cyclodextrin 20% (w/v) to 40% (w/v) alone, 25° C., FIG. 1(A), read-out: solubility of Tecovirimat in water",5 to 15 mg/mL
same,solubility,"physchem; 25 °C, meglumine 2% (w/v) to 10% (w/v) alone, 25° C., FIG. 1(B), read-out: solubility of Tecovirimat in water",2 to 7 mg/mL
same,solubility,"physchem; 25 °C, meglumine 5% (w/v) plus cyclodextrin 20% (w/v) to 40% (w/v), 25° C., FIG. 1(C), read-out: solubility of Tecovirimat in water",20 to 80 mg/mL
same,solubility,"physchem; 37 °C, cyclodextrin 20% (w/v) to 40% (w/v) alone, 37° C., FIG. 1(A), read-out: solubility of Tecovirimat in water",5 to 18 mg/mL
same,solubility,"physchem; 37 °C, meglumine 2% (w/v) to 10% (w/v) alone, 37° C., FIG. 1(B), read-out: solubility of Tecovirimat in water",2 to 9 mg/mL
same,solubility,"physchem; 37 °C, meglumine 5% (w/v) plus cyclodextrin 20% (w/v) to 40% (w/v), 37° C., FIG. 1(C), read-out: solubility of Tecovirimat in water",30 to 100 mg/mL
same,solubility,"physchem; 60 °C, cyclodextrin 20% (w/v) to 40% (w/v) alone, 60° C., FIG. 1(A), read-out: solubility of Tecovirimat in water",5 to 20 mg/mL
same,solubility,"physchem; 60 °C, meglumine 2% (w/v) to 10% (w/v) alone, 60° C., FIG. 1(B), read-out: solubility of Tecovirimat in water",2 to 10 mg/mL
same,solubility,"physchem; 60 °C, meglumine 5% (w/v) plus cyclodextrin 20% (w/v) to 40% (w/v), 60° C., FIG. 1(C), read-out: solubility of Tecovirimat in water",50 to 150 mg/mL
same,solubility,"physchem; ternary solubilizing composition: Tecovirimat, cyclodextrin, additive (e.g. meglumine), read-out: maximal solubility",≤ 152 mg/mL
same,dissolution,[1],< 5%
same,water solubility,[2],less than 0.003 mg/ml
same,solubility,"[3]; 20%-40% (w/v) hydroxypropyl-β-cyclodextrin (HP-β-CD), 37° C.",1.5 to 11 mg/mL
same,maximal solubility,"[3]; 40% (w/v) HP-β-CD, 70° C.",21.23 mg/mL
same,effect of cosolvent (PEG400) or nonionic surfactant (Tween 80) on solubility in HP-β-CD,[3]; HP-β-CD plus PEG400 or Tween 80,cannot further improve the solubility
